Experimental data: the supplement of paper PMC11208160

Test: recombinant UMI read abundance after kanamycin selection (control-corrected) (log10(CPM+1)); higher = more efficient recombination; extreme values may be limits of the assay; sequences stand for … in AGTGCAGAGAAAATCGGCCAGTTTTCTCTGCCTGCAGTCCGCATGCCGTGGGACCCCTTGGGTTCTAACCTGTTGCCTAGATTTATGCAGCGGACTGCCTTTCTCCCAAAGTGATAAACCGG…AGGTTGGTTTCACT; site = the 11-nt donor
Procedure, shortened: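 Reported values are log10(CPM+1) from a pooled Escherichia coli screen of donor and donor-binding-loop pairs for the IS621 bridge recombinase. Selection used IPTG (0.07 mM) plus kanamycin, against unselected plating, each in two replicates. Recombinant UMIs were amplified across the donor–target junction, sequenced, converted to CPM, averaged over replicates and scaled by control-derived factors.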
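Also: IS621 bridge recombinase in Escherichia coli cells against a fixed T5 target plasmid.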

Row | Sequence | recombinant UMI read abundance (log10)
1 | TGCTAGGCATGGACCGGTTTTCCCGGTAATCCGTATTTGGA (site TGCTAGGCTGC) | 0
2 | TGCTAGGCATGGACCGGTTTTCCCGGTAATCCGTATTTGGA (site TGCTAGGCTTC) | 0.261
3 | TGCTAGGCATGGACCGGTTTTCCCGGTAATCCGTATTTGGC (site TGCTAGGCTAC) | 0.0365
4 | TGCTAGGCATGGACCGGTTTTCCCGGTAATCCGTATTTGGC (site TGCTAGGCTCC) | 0.013
5 | TGCTAGGCATGGACCGGTTTTCCCGGTAATCCGTATTTGGC (site TGCTAGGCTGC) | 0
6 | TGCTAGGCATGGACCGGTTTTCCCGGTAATCCGTATTTGGC (site TGCTAGGCTTC) | 0.0105
7 | TGCTAGGCATGGACCGGTTTTCCCGGTAATCCGTATTTGTT (site TGCTAGGCTAA) | 0.282
8 | TGCTAGGCATGGACCGGTTTTCCCGGTAATCCGTATTTGTT (site TGCTAGGCTAC) | 0.00683
9 | TGCTAGGCATGGACCGGTTTTCCCGGTAATCCGTATTTGTT (site TGCTAGGCTAG) | 0.00242
10 | TGCTAGGCATGGACCGGTTTTCCCGGTAATCCGTATTTGTT (site TGCTAGGCTAT) | 0
11 | TGCTGCCCATGGACCGGTTTTCCCGGTAATCCGTATTTGTC (site TGCTGCCCTGA) | 0.338
12 | TGGAACCCATGGACCGGTTTTCCCGGTAATCCGTATTTGTT (site CGGAATCCTAA) | 0
13 | TGGAACCCATGGACCGGTTTTCCCGGTAATCCGTATTTGTT (site TGGAACCCTAA) | 1.15
14 | TGGAAGACATGGACCGGTTTTCCCGGTAATCCGTATTTGTA (site AGGAAGACTTG) | 0.00598
15 | TGGAAGACATGGACCGGTTTTCCCGGTAATCCGTATTTGTA (site TGGAAGACTTA) | 2.36
16 | TGGAAGTCATGGACCGGTTTTCCCGGTAATCCGTATTTGGC (site TGGAAGTCTGC) | 2.31
17 | TGGAATACATGGACCGGTTTTCCCGGTAATCCGTATTTGTG (site TGGAATACTCA) | 1.12
18 | TGGAATCCATGGACCGGTTTTCCCGGTAATCCGTATTTGGT (site CGGAATCCTAA) | 0
19 | TGGAATCCATGGACCGGTTTTCCCGGTAATCCGTATTTGGT (site TGGAATCCTAC) | 0
20 | TGGACTACATGGACCGGTTTTCCCGGTAATCCGTATTTGGA (site TGGACTACTTC) | 0.786
21 | TGGACTTCATGGACCGGTTTTCCCGGTAATCCGTATTTGTG (site TGGACTTCTCA) | 0.248
22 | TGGATTCCATGGACCGGTTTTCCCGGTAATCCGTATTTGAT (site TGGATTCCTAT) | 0
23 | TGGCAGGCATGGACCGGTTTTCCCGGTAATCCGTATTTGGC (site TGGCAGGCTGC) | 0.909
24 | TGGCAGGCATGGACCGGTTTTCCCGGTAATCCGTATTTGGC (site TGGCCGGCTGC) | 0
25 | TGGCAGGCATGGACCGGTTTTCCCGGTAATCCGTATTTGGC (site TGGCGGGCTGC) | 0

Row | Sequence | recombinant UMI read abundance (log10)
26 | TGGCAGGCATGGACCGGTTTTCCCGGTAATCCGTATTTGGC (site TGGCTGGCTGC) | 0
27 | TGGCCGGCATGGACCGGTTTTCCCGGTAATCCGTATTTGCC (site TGGCCGGCTGA) | 0.00339
28 | TGGCCGGCATGGACCGGTTTTCCCGGTAATCCGTATTTGCC (site TGGCCGGCTGC) | 0
29 | TGGCCGGCATGGACCGGTTTTCCCGGTAATCCGTATTTGCC (site TGGCCGGCTGG) | 1.05
30 | TGGCCGGCATGGACCGGTTTTCCCGGTAATCCGTATTTGCC (site TGGCCGGCTGT) | 0.00896
31 | TGGCCGTCATGGACCGGTTTTCCCGGTAATCCGTATTTGGC (site TGGCCGACTGC) | 0
32 | TGGCCGTCATGGACCGGTTTTCCCGGTAATCCGTATTTGGC (site TGGCCGCCTGC) | 0
33 | TGGCCGTCATGGACCGGTTTTCCCGGTAATCCGTATTTGGC (site TGGCCGGCTGC) | 0
34 | TGGCCGTCATGGACCGGTTTTCCCGGTAATCCGTATTTGGC (site TGGCCGTCTGC) | 0.431
35 | TGGCGAGCATGGACCGGTTTTCCCGGTAATCCGTATTTGTT (site TGGCGAGCTAA) | 1.04
36 | TGGCGGACATGGACCGGTTTTCCCGGTAATCCGTATTTGCA (site TGGCGGACTTG) | 1.67
37 | TGGCTTACATGGACCGGTTTTCCCGGTAATCCGTATTTGGC (site TGGCTTACTGC) | 0.536
38 | TGGGAATCATGGACCGGTTTTCCCGGTAATCCGTATTTGCG (site TAGGAATCTCG) | 1.35
39 | TGGGAATCATGGACCGGTTTTCCCGGTAATCCGTATTTGCG (site TCGGAATCTCG) | 1.85
40 | TGGGAATCATGGACCGGTTTTCCCGGTAATCCGTATTTGCG (site TGGGAATCTCG) | 2.5
41 | TGGGAATCATGGACCGGTTTTCCCGGTAATCCGTATTTGCG (site TTGGAATCTCG) | 0.459
42 | TGGGAGACATGGACCGGTTTTCCCGGTAATCCGTATTTGCA (site AGGAAGACTTG) | 0.261
43 | TGGGAGACATGGACCGGTTTTCCCGGTAATCCGTATTTGCA (site TGGGAGACTTG) | 1.7
44 | TGGGAGGCATGGACCGGTTTTCCCGGTAATCCGTATTTGAC (site TGGGAGGCTGT) | 1.46
45 | TGGGTGCCATGGACCGGTTTTCCCGGTAATCCGTATTTGAC (site TGGGTGCCTGT) | 0
46 | TGGTAGCCATGGACCGGTTTTCCCGGTAATCCGTATTTGTT (site TGGTAGCCTAA) | 0.256
47 | TGGTCATCATGGACCGGTTTTCCCGGTAATCCGTATTTGAG (site TGGTCATCTCT) | 0.0288
48 | TGGTGCCCATGGACCGGTTTTCCCGGTAATCCGTATTTGGT (site TGGTGCCCTAC) | 0.00779
49 | TGGTGTCCATGGACCGGTTTTCCCGGTAATCCGTATTTGAG (site TGGTGTCCTCT) | 0.0312
50 | TGGTTATCATGGACCGGTTTTCCCGGTAATCCGTATTTGTC (site TGGTTATCTGA) | 0.968

Row | Sequence | recombinant UMI read abundance (log10)
51 | TGTAAATCATGGACCGGTTTTCCCGGTAATCCGTATTTGTT (site TGTAAATCTAA) | 1.13
52 | TGTAACGCATGGACCGGTTTTCCCGGTAATCCGTATTTGTG (site TGTAACGCTCA) | 0.0113
53 | TGTACAACATGGACCGGTTTTCCCGGTAATCCGTATTTGAC (site TGTACAACTGT) | 0.315
54 | TGTACAACATGGACCGGTTTTCCCGGTAATCCGTATTTGAC (site TGTACACCTGT) | 0
55 | TGTACAACATGGACCGGTTTTCCCGGTAATCCGTATTTGAC (site TGTACAGCTGT) | 0
56 | TGTACAACATGGACCGGTTTTCCCGGTAATCCGTATTTGAC (site TGTACATCTGT) | 0.295
57 | TGTACACCATGGACCGGTTTTCCCGGTAATCCGTATTTGTC (site TGTACACCTGA) | 0
58 | TGTACACCATGGACCGGTTTTCCCGGTAATCCGTATTTGTC (site TGTACACCTGC) | 0
59 | TGTACACCATGGACCGGTTTTCCCGGTAATCCGTATTTGTC (site TGTACACCTGG) | 0
60 | TGTACACCATGGACCGGTTTTCCCGGTAATCCGTATTTGTC (site TGTACACCTGT) | 0
61 | TGTACAGCATGGACCGGTTTTCCCGGTAATCCGTATTTGAC (site TGTACAACTGT) | 0
62 | TGTACAGCATGGACCGGTTTTCCCGGTAATCCGTATTTGAC (site TGTACACCTGT) | 0
63 | TGTACAGCATGGACCGGTTTTCCCGGTAATCCGTATTTGAC (site TGTACAGCTGT) | 1.75
64 | TGTACAGCATGGACCGGTTTTCCCGGTAATCCGTATTTGAC (site TGTACATCTGT) | 0.647
65 | TGTACATCATGGACCGGTTTTCCCGGTAATCCGTATTTGAC (site TGTACAACTGT) | 0
66 | TGTACATCATGGACCGGTTTTCCCGGTAATCCGTATTTGAC (site TGTACACCTGT) | 0
67 | TGTACATCATGGACCGGTTTTCCCGGTAATCCGTATTTGAC (site TGTACAGCTGT) | 0
68 | TGTACATCATGGACCGGTTTTCCCGGTAATCCGTATTTGAC (site TGTACATCTGT) | 0
69 | TGTAGCTCATGGACCGGTTTTCCCGGTAATCCGTATTTGAA (site TGTAGCTCTTT) | 0.301
70 | TGTAGCTCATGGACCGGTTTTCCCGGTAATCCGTATTTGGG (site TGTAGCTCTCC) | 0.0269
71 | TGTAGGACATGGACCGGTTTTCCCGGTAATCCGTATTTGAA (site TGTAGGACTTT) | 0.373
72 | TGTCAAACATGGACCGGTTTTCCCGGTAATCCGTATTTGGG (site TGTCAAACTCC) | 0.00984
73 | TGTCAGACATGGACCGGTTTTCCCGGTAATCCGTATTTGTG (site TGTCAGACTCA) | 0.0321
74 | TGTCCTACATGGACCGGTTTTCCCGGTAATCCGTATTTGGA (site TGTCCTACTTC) | 0.0197
75 | TGTCCTGCATGGACCGGTTTTCCCGGTAATCCGTATTTGTT (site TGTCCTGCTAA) | 0.011
